Entries after “also recorded” stand apart in the source; their conditions may differ. Blank lines part the entries; values can stand above or below the compound they belong to.
How the values were obtained:
Mcl-1 [1] = biological target: T1, Mcl-1 (Homo sapiens, UniProt Q07820); assay: FP based binding assay to Mcl-1 (Bid BH3 peptide probe)
Target sequence in this assay (Q07820 whole entry): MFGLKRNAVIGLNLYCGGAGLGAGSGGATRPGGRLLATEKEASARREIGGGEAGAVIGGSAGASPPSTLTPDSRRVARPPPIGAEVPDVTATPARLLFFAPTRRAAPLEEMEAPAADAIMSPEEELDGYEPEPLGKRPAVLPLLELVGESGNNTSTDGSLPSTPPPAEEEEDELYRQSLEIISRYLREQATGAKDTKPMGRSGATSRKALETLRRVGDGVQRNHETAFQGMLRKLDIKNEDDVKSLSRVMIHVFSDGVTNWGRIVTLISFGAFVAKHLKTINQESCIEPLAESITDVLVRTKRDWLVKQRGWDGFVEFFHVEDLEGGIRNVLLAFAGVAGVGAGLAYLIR

Bcl-xL [2] = biological target: T2, Bcl-xL (Homo sapiens, UniProt Q07817); assay: Cell-free functional assay with purified mitochondria, Smac release, Bcl-xL; type: biochemical; details: concentrations as high as 9 μM
T2 sequence (Q07817 whole entry, species assumed): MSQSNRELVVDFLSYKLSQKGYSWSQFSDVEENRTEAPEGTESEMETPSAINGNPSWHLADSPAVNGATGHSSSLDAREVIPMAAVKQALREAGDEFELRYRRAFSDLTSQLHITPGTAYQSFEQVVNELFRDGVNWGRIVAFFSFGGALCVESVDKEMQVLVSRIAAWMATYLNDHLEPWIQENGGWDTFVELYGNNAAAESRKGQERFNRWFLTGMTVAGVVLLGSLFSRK
From the text: To provide direct evidence that 483 and 487 also selectively antagonize Mcl-1 function, a cell-free functional assay was established using purified mitochondria, recombinant Mcl-1 and Bcl-xL proteins, and the BIM BH3 peptide which binds to both proteins with high affinities.

Mcl-1 knockout MEFs = type: cell-based; details: 15 h
Procedure: Cell viability was assessed using propidium iodide staining detected with flow cytometry. […] The percentage of dead cells was calculated using LIVE/DEAD fixable violet dead cell stain (VIVID) and detected with flow cytometry.

[3] = system: Eμ-myc lymphoma cells overexpressing Mcl-1; assay: Cell death in Eμ-myc lymphoma cells overexpressing Mcl-1; type: cell-based, mouse; details: Eμ-myc lymphoma overexpressing Mcl-1, 15 h, VIVID stain, flow cytometry
Procedure: (§1) FIG. 5A-B: A) 483 induces Bax/Bak and Mcl-1 dependent cell death. Mouse Embryonic Fibroblasts (MEFs) were treated for 15 h with 483 and ABT263. Cell viability was assessed using propidium iodide staining detected with flow cytometry. […] Cells were treated for 15 h with increasing concentrations of (A) 483 and (B) ABT263. […] The percentage of dead cells was calculated using LIVE/DEAD fixable violet dead cell stain (VIVID) and detected with flow cytometry. (*) is p<0.001.
(§2) Wild-type, Bax/Bak double knockout and Mcl-1 knockout MEFs cells have been employed as models to establish the mechanism-based apoptosis and on-target activity (see, e.g., Lindsten, T., and Thompson, C. B. (2006) Cell death and differentiation 13, 1272-1276). […] The specificity of this class Mcl-1 inhibitors was further confirmed by using cell lines developed by retroviral transduction of lymphoma cells isolated from Eg-myc transgenic mice which survival depends on the expression of individual prosurvival protein.

Bcl-xL [4] = biological target: T2, Bcl-xL; assay: Binding selectivity, Bcl-xL
endogenous Mcl-1 protein = biological target: T3, endogenous Mcl-1 protein (Homo sapiens, UniProt Q07820); assay: Pull-down assay using biotin-labeled Noxa and 2LMP whole cell lysate; type: binding; details: Western blot with anti-Mcl-1 antibody
T3 construct: endogenous in cells; host or cells: 2LMP human breast cancer cells (whole cell lysate)
T3 sequence (Q07820 whole entry): as the sequence (Q07820 whole entry) above
Procedure: FIG. 3: Mcl-1 inhibitors recognize and bind endogenous Mcl-1 protein. Biotin-labeled Noxa (BL-Noxa, […]) was incubated with whole cell lysates of 2LMP cells with or without tested Mcl-1 inhibitors and Bim BH3 peptide as a positive control, followed by incubation with precleared streptavidin agarose beads. Eluted beads were subjected to Western blot analysis with anti-Mcl-1 antibody.

[5] = system: Bax/Bak double knockout MEFs; assay: Cell viability in Bax/Bak double knockout MEFs; type: cell-based; details: 15 h
Procedure: as §1, §2

[6] = system: Eμ-myc lymphoma cells overexpressing Bcl-2; assay: Cell death in Eμ-myc lymphoma cells overexpressing Bcl-2; type: cell-based, mouse; details: Eμ-myc lymphoma overexpressing Bcl-2, 15 h
Procedure: as §1, §2

[7] = biological target: T4, Mcl-1/BAK protein-protein interactions (Homo sapiens, UniProt Q07820); assay: Co-immunoprecipitation of Mcl-1 protein in Panc-1 cells; type: cell-based; details: different concentrations, Mcl-1 immunoprecipitation and Western blot
T4 construct: endogenous in cells; host or cells: Panc-1 cells
T4 sequence (Q07820 whole entry): as above
From the text: FIG. 8: 483LM disrupts the Mcl-1/BAK protein-protein interactions in Panc-1 cell line.

Bcl-2 = Bcl-2 (Homo sapiens, UniProt P10415); assay: Binding selectivity, Bcl-2
Sequence of Bcl-2 (P10415 whole entry, species assumed): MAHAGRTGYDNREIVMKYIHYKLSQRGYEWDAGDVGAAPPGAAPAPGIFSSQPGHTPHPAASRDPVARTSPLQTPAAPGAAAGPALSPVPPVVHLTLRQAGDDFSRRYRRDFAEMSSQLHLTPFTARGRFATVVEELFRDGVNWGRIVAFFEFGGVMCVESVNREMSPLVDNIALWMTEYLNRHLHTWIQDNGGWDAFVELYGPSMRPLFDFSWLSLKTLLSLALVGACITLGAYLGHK

Bcl-w = biological target: T5, Bcl-w (Homo sapiens, UniProt Q92843); assay: Binding selectivity, Bcl-w
T5 sequence (Q92843 1-193): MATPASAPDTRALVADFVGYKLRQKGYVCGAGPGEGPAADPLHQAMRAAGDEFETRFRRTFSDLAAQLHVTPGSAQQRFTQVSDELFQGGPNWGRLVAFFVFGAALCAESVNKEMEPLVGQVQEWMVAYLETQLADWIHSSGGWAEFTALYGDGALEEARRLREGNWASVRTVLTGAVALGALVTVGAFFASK

Panc-1 cells = assay: Cell growth inhibition of Panc-1 by MTT assay, ABT-263 with 483; type: cell-based
From the text: FIG. 7: 483 synergizes with ABT-263 to kill Panc-1 cells.
As expected, ABT-263 had little effect on this cell line (FIG. 7).

wild-type MEFs = assay: Cell viability in wild-type MEFs; type: cell-based, mouse; details: 15 h, propidium iodide staining, flow cytometry
Procedure: as §1, §2

Mcl-1 [8] = biological target: T1, Mcl-1; assay: HSQC NMR spectroscopy of binding to Mcl-1 protein; details: compound in complex with Mcl-1
From the text: [drawing 85] with 5,6-difuran-2-yl-1,2,4-triazine core identified with high throughput screening (see, e.g., Du, Y., et al., Assay and drug development technologies 9, 382-393). […] The second furan ring has weak hydrophobic interaction with residues Phe 318 and Phe 319, which are located proximal to the conserved h4 pocket (FIG. 1). These two residues were identified that contribute to additional hydrophobic contacts with the staple of a reported stabilized α-helix (see, e.g., Stewart, M. L., et al., Nat Chem Biol 6, 595-601).
[drawing 86] was de-novo designed (FIG. 1). In the 368, one furan ring was replaced with carboxylate moiety in order to improve the conserved hydrogen bond, the other furan ring was replaced with phenylsulfonamido and the side chain was changed to phenethylthio substituent in order to allow further modification for improving hydrophobic interactions.
Target sequence in this assay (Q07820 whole entry): as the sequence (Q07820 whole entry) above

Mcl-1 [9] = biological target: T1, Mcl-1; details: cited from earlier work
Target sequence in this assay (Q07820 whole entry, species assumed): as the sequence (Q07820 whole entry) above

[10] = FP assay using Bid BH3 peptide as a probe

Ki (Mcl-1 [1]; Binding affinity of Mcl-1 inhibitors using FP based assay, Table 1): 8 ± 2 nM
release of Smac in the Bcl-xL functional assay (Bcl-xL [2]): fail to release Smac
SMILES: CC(C)c1cc(NC(=O)c2ccc(Oc3ccc(F)cc3)cc2)c(C(=O)O)cc1-c1ccc(COc2cccc(C(F)(F)F)c2)cc1 [Compound 487, 4-(4-(4-fluorophenoxy)benzamido)-6-isopropyl-4′-((3-(trifluoromethyl)phenoxy)methyl)-[1,1′-biphenyl]-3-carboxylic acid]

chemical shift perturbations in HSQC NMR spectrum (Mcl-1 [8]): concentration-dependent perturbations
Ki (Mcl-1 [1]; [10]): 2090 ± 180 nM
SMILES: O=C(CSc1nnc(-c2ccco2)c(-c2ccco2)n1)Nc1ccccc1 [Compound E238, reference compound]

The next lines start with the compound.

SMILES: CC(C)c1cc(NC(=O)c2ccc(Oc3ccccc3)cc2)c(C(=O)O)cc1-c1ccc(COc2cccc(C(F)(F)F)c2)cc1 [Compound 483, 6-isopropyl-4-(4-phenoxybenzamido)-4′-((3-(trifluoromethyl)phenoxy)methyl)-[1,1′-biphenyl]-3-carboxylic acid]
cytotoxicity / growth-inhibitory activity (Mcl-1 knockout MEFs): didn't show cytotoxicity
cell death / sensitization [3]: led to sensitization; also recorded: selectively induces cell death
Ki (Mcl-1 [1]; binding affinity to Mcl-1): 7 ± 2 nM
Ki (Bcl-xL [4]): > 1000 nM
blocking of the binding of BL-Noxa to Mcl-1 (endogenous Mcl-1 protein): dose-dependent blocked
cytotoxicity [5]: didn't show cytotoxicity
effect on cells [6]: did not show effect
disruption of Mcl-1/Bak protein-protein interactions [7]: dose-dependent disruption
disruption of Mcl-1/Bak protein-protein interactions ([7]; listed as 483LM): disrupts
release of Smac in the Bcl-xL functional assay (Bcl-xL [2]): fail to release Smac
Ki (Bcl-2): > 1000 nM
Ki (Bcl-w): > 1000 nM
combination effect with ABT-263 (Panc-1 cells; Panc-1, 48 h): synergizes; also recorded: substantially shifted the dose-response curve
improvement of IC50 of cell growth inhibition of ABT-263 (Panc-1 cells; Panc-1, ABT-263 in the presence of 483, 48 h): more than 660 fold
cell death (wild-type MEFs): causes cell death

SMILES: CC1(C)CCC(c2ccc(Cl)cc2)=C(CN2CCN(c3ccc(C(=O)NS(=O)(=O)c4ccc(N[C@H](CCN5CCOCC5)CSc5ccccc5)c(S(=O)(=O)C(F)(F)F)c4)cc3)CC2)C1 [ABT-263, reference compound]
cytotoxicity / growth-inhibitory activity (Mcl-1 knockout MEFs): increased growth-inhibitory activity
effect on cell line, single agent (Panc-1 cells; Panc-1, 48 h): little effect

SMILES: O=C(O)c1cc(SCCc2ccccc2)ccc1NS(=O)(=O)c1ccccc1 [Compound 368, 5-(Phenethylthio)-2-(phenylsulfonamido)benzoic acid]
chemical shift perturbations in HSQC NMR spectrum (Mcl-1 [8]): large chemical shift perturbations
Ki (Mcl-1 [1]; [10]): 490 ± 10 nM

SMILES: CN(C)CC[C@H](CSc1ccccc1)Nc1ccc(S(=O)(=O)NC(=O)c2ccc(N3CCN(Cc4ccccc4-c4ccc(Cl)cc4)CC3)cc2)cc1[N+](=O)[O-] [ABT-737]
binding to Mcl-1 (Mcl-1 [9]): fails to bind
